According to ChEMBL document CHEMBL4145553, “Design, synthesis, and biological evaluation of novel amide and hydrazide based thioether analogs targeting Histone deacteylase (HDAC) enzymes” (Eur J Med Chem, 2018):
Calls of active or inactive are those of the source. No cut-off for these calls is given here.

What was measured:
OVCAR-3 = assay: Growth inhibition of human OVCAR3 cells assessed as cell growth at 10^-8 M incubated for 48 hrs by sulforhodamine B assay relative to control; assay type: functional; conditions: OVCAR-3, 48 h, read-out: Activity
SK-MEL-28 [1] = assay: Growth inhibition of human SK-MEL-28 cells assessed as cell growth at 10^-7 M incubated for 48 hrs by sulforhodamine B assay relative to control; assay type: functional; conditions: SK-MEL-28, 48 h, read-out: Activity
SR = assay: Growth inhibition of human SR cells assessed as cell growth at 10^-4 M incubated for 48 hrs by sulforhodamine B assay relative to control; assay type: functional; conditions: read-out: Activity
NCI-H460 = assay: Growth inhibition of human NCI-H460 cells assessed as cell growth at 10^-4 M incubated for 48 hrs by sulforhodamine B assay relative to control; assay type: functional; conditions: NCI-H460, 48 h, read-out: Activity
NCI-H322M = assay: Growth inhibition of human NCI-H322M cells incubated for 48 hrs by sulforhodamine B assay; assay type: functional
U-251 = assay: Growth inhibition of human U251 cells assessed as cell growth at 10^-5 M incubated for 48 hrs by sulforhodamine B assay relative to control; assay type: functional; conditions: U-251, 48 h, read-out: Activity
NCI-H522 = assay: Growth inhibition of human NCI-H522 cells assessed as cell growth at 10^-6 M incubated for 48 hrs by sulforhodamine B assay relative to control; assay type: functional; conditions: NCI-H522, 48 h, read-out: Activity
IGROV-1 [2] = assay: Growth inhibition of human IGROV1 cells assessed as cell growth at 10^-6 M incubated for 48 hrs by sulforhodamine B assay relative to control; assay type: functional; conditions: IGROV-1, 48 h, read-out: Activity
HL-60 = assay: Induction of apoptosis in human HL60 cells assessed as increase in caspase-3 expression by qRT-PCR method; assay type: functional, cell-based
NCI/ADR-RES [3] = assay: Growth inhibition of human NCI/ADR-RES cells assessed as cell growth at 10^-4 M incubated for 48 hrs by sulforhodamine B assay relative to control; assay type: functional; conditions: read-out: Activity
OVCAR-4 = assay: Growth inhibition of human OVCAR4 cells assessed as cell growth at 10^-7 M incubated for 48 hrs by sulforhodamine B assay relative to control; assay type: functional; conditions: OVCAR-4, 48 h, read-out: Activity
OVCAR-8 = assay: Growth inhibition of human OVCAR8 cells assessed as cell growth at 10^-5 M incubated for 48 hrs by sulforhodamine B assay relative to control; assay type: functional; conditions: OVCAR-8, 48 h, read-out: Activity
CCRF-CEM [4] = assay: Growth inhibition of human CCRF-CEM cells assessed as cell growth at 10^-7 M incubated for 48 hrs by sulforhodamine B assay relative to control; assay type: functional; conditions: read-out: Activity
SW-620 = assay: Growth inhibition of human SW620 cells assessed as cell growth at 10^-6 M incubated for 48 hrs by sulforhodamine B assay relative to control; assay type: functional; conditions: SW-620, 48 h, read-out: Activity
BT-549 = assay: Growth inhibition of human BT549 cells assessed as cell growth at 10^-4 M incubated for 48 hrs by sulforhodamine B assay relative to control; assay type: functional; conditions: BT-549, 48 h, read-out: Activity
MDA-MB-435 [5] = assay: Growth inhibition of human MDA-MB-435 cells assessed as cell growth at 10^-6 M incubated for 48 hrs by sulforhodamine B assay relative to control; assay type: functional; conditions: MDA-MB-435, 48 h, read-out: Activity
NCI-H23 = assay: Growth inhibition of human NCI-H23 cells assessed as cell growth at 10^-8 M incubated for 48 hrs by sulforhodamine B assay relative to control; assay type: functional; conditions: NCI-H23, 48 h, read-out: Activity
Histone deacetylase 2 = Histone deacetylase 2 (Homo sapiens, UniProt Q92769); assay: Inhibition of human HDAC2 by ELISA
NCI/ADR-RES [6] = assay: Growth inhibition of human NCI/ADR-RES cells assessed as cell growth at 10^-5 M incubated for 48 hrs by sulforhodamine B assay relative to control; assay type: functional; conditions: read-out: Activity
SF-268 = assay: Growth inhibition of human SF268 cells assessed as cell growth at 10^-8 M incubated for 48 hrs by sulforhodamine B assay relative to control; assay type: functional; conditions: SF-268, 48 h, read-out: Activity
CCRF-CEM [7] = assay: Growth inhibition of human CCRF-CEM cells assessed as cell growth at 10^-4 M incubated for 48 hrs by sulforhodamine B assay relative to control; assay type: functional; conditions: read-out: Activity
HCT-15 [8] = assay: Growth inhibition of human HCT15 cells assessed as cell growth at 10^-4 M incubated for 48 hrs by sulforhodamine B assay relative to control; assay type: functional; conditions: HCT-15, 48 h, read-out: Activity
SK-MEL-28 [9] = assay: Growth inhibition of human SK-MEL-28 cells assessed as cell growth at 10^-5 M incubated for 48 hrs by sulforhodamine B assay relative to control; assay type: functional; conditions: SK-MEL-28, 48 h, read-out: Activity
DU-145 = assay: Growth inhibition of human DU145 cells assessed as cell growth at 10^-5 M incubated for 48 hrs by sulforhodamine B assay relative to control; assay type: functional; conditions: DU-145, 48 h, read-out: Activity
A549 = assay: Growth inhibition of human A549/ATCC cells incubated for 48 hrs by sulforhodamine B assay; assay type: functional; conditions: A549, 48 h
ACHN = assay: Growth inhibition of human ACHN cells assessed as cell growth at 10^-5 M incubated for 48 hrs by sulforhodamine B assay relative to control; assay type: functional; conditions: read-out: Activity
IGROV-1 [10] = assay: Growth inhibition of human IGROV1 cells assessed as cell growth at 10^-4 M incubated for 48 hrs by sulforhodamine B assay relative to control; assay type: functional; conditions: IGROV-1, 48 h, read-out: Activity
HCT-15 [11] = assay: Growth inhibition of human HCT15 cells assessed as cell growth at 10^-8 M incubated for 48 hrs by sulforhodamine B assay relative to control; assay type: functional; conditions: HCT-15, 48 h, read-out: Activity
SK-MEL-5 = assay: Growth inhibition of human SK-MEL-5 cells assessed as cell growth at 10^-4 M incubated for 48 hrs by sulforhodamine B assay relative to control; assay type: functional; conditions: SK-MEL-5, 48 h, read-out: Activity
MDA-MB-231 = assay: Growth inhibition of human MDA-MB-231 cells assessed as cell growth at 10^-5 M incubated for 48 hrs by sulforhodamine B assay relative to control; assay type: functional; conditions: MDA-MB-231, 48 h, read-out: Activity
UACC-257 = assay: Growth inhibition of human UACC257 cells assessed as cell growth at 10^-8 M incubated for 48 hrs by sulforhodamine B assay relative to control; assay type: functional; conditions: UACC-257, 48 h, read-out: Activity
MDA-MB-435 [12] = assay: Downregulation of HDAC3 mRNA expression in human MDA-MB-435 cells by qRT-PCR method; assay type: functional, cell-based
HCT-15 [13] = assay: Growth inhibition of human HCT15 cells assessed as cell growth at 10^-7 M incubated for 48 hrs by sulforhodamine B assay relative to control; assay type: functional; conditions: HCT-15, 48 h, read-out: Activity
[14] = read-out: LC50 (the source's name)
[15] = read-out: pLC50 (the source's name) (converted)

Sequence of Histone deacetylase 2 (Q92769 whole entry): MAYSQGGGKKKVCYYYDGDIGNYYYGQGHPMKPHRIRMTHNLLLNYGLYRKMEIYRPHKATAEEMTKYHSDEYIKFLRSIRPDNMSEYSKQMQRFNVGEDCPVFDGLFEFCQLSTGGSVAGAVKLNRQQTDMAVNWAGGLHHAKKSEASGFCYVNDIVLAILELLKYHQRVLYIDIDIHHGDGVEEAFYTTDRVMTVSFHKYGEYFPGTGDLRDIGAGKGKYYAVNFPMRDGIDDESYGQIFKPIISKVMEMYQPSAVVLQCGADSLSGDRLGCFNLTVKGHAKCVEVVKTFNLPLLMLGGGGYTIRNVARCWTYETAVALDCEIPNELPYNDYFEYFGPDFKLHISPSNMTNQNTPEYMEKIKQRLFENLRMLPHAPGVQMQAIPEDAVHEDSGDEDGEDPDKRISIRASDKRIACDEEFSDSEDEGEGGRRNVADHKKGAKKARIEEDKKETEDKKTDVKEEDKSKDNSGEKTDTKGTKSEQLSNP

CCS/C(Nc1ccccc1)=C(\C#N)C(=O)N/N=C\c1ccc(Cl)cc1Cl
growth at 0.01 µM (OVCAR-3): 102%
growth at 0.1 µM (SK-MEL-28 [1]): 95%
growth at 100 µM (SR): 7%
growth at 100 µM (NCI-H460): 6%
GI50 (NCI-H322M; read-out: GI50): 6.87 µM
CC50 (NCI-H322M; [14]): > 100 µM
TGI (NCI-H322M; read-out: TGI): > 100 µM
GI50 (NCI-H322M; read-out: pGI50 (converted)): 6.92 µM
CC50 (NCI-H322M; [15]): > 100 µM
TGI (NCI-H322M; read-out: pTGI): > 100 µM
growth at 10 µM (U-251): 20%
growth at 1 µM (NCI-H522): 68%
growth at 1 µM (IGROV-1 [2]): 84%
Activity (HL-60): Active
growth at 100 µM (NCI/ADR-RES [3]): 11%
growth at 0.1 µM (OVCAR-4): 89%
growth at 10 µM (OVCAR-8): 27%
growth at 0.1 µM (CCRF-CEM [4]): 95%
growth at 1 µM (SW-620): 88%
growth at 100 µM (BT-549): 7%
growth at 1 µM (MDA-MB-435 [5]): 28%
growth at 0.01 µM (NCI-H23): 105%
IC50 (Histone deacetylase 2): 0.02 µM
growth at 10 µM (NCI/ADR-RES [6]): 13%
growth at 0.01 µM (SF-268): 94%
growth at 100 µM (CCRF-CEM [7]): 11%
growth at 100 µM (HCT-15 [8]): 11%
growth at 10 µM (SK-MEL-28 [9]): 53%
growth at 10 µM (DU-145): 12%
GI50 (A549; read-out: GI50): 4.63 µM
CC50 (A549; [14]): > 100 µM
TGI (A549; read-out: TGI): > 100 µM
GI50 (A549; read-out: pGI50 (converted)): 4.68 µM
CC50 (A549; [15]): > 100 µM
TGI (A549; read-out: pTGI): > 100 µM
growth at 10 µM (ACHN): 43%
growth at 100 µM (IGROV-1 [10]): 30%
growth at 0.01 µM (HCT-15 [11]): 99%
growth at 100 µM (SK-MEL-5): -14%
growth at 10 µM (MDA-MB-231): 32%
growth at 0.01 µM (UACC-257): 94%
Activity (MDA-MB-435 [12]): Active
growth at 0.1 µM (HCT-15 [13]): 87%

CCS/C(Nc1ccccc1)=C(\C#N)C(=O)Nc1ccc(OC)cc1
growth at 0.01 µM (OVCAR-3): 97%
growth at 0.1 µM (SK-MEL-28 [1]): 91%
growth at 100 µM (SR): 16%
growth at 100 µM (NCI-H460): -9%
GI50 (NCI-H322M; read-out: GI50): 5.81 µM
CC50 (NCI-H322M; [14]): > 100 µM
TGI (NCI-H322M; read-out: TGI): > 100 µM
GI50 (NCI-H322M; read-out: pGI50 (converted)): 5.75 µM
CC50 (NCI-H322M; [15]): > 100 µM
TGI (NCI-H322M; read-out: pTGI): > 100 µM
growth at 10 µM (U-251): 26%
growth at 1 µM (NCI-H522): 77%
growth at 1 µM (IGROV-1 [2]): 79%
Activity (HL-60): Active
growth at 100 µM (NCI/ADR-RES [3]): 10%
growth at 0.1 µM (OVCAR-4): 88%
growth at 10 µM (OVCAR-8): 23%
growth at 0.1 µM (CCRF-CEM [4]): 83%
growth at 1 µM (SW-620): 70%
growth at 100 µM (BT-549): 12%
growth at 1 µM (MDA-MB-435 [5]): 19%
growth at 0.01 µM (NCI-H23): 97%
IC50 (Histone deacetylase 2): 0.032 µM
growth at 10 µM (NCI/ADR-RES [6]): 18%
growth at 0.01 µM (SF-268): 101%
growth at 100 µM (CCRF-CEM [7]): 7%
growth at 100 µM (HCT-15 [8]): 4%
growth at 10 µM (SK-MEL-28 [9]): 53%
growth at 10 µM (DU-145): 13%
GI50 (A549; read-out: GI50): 5.91 µM
CC50 (A549; [14]): > 100 µM
TGI (A549; read-out: TGI): > 100 µM
GI50 (A549; read-out: pGI50 (converted)): 5.89 µM
CC50 (A549; [15]): > 100 µM
TGI (A549; read-out: pTGI): > 100 µM
growth at 10 µM (ACHN): 33%
growth at 100 µM (IGROV-1 [10]): 28%
growth at 0.01 µM (HCT-15 [11]): 98%
growth at 100 µM (SK-MEL-5): -58%
growth at 10 µM (MDA-MB-231): 23%
growth at 0.01 µM (UACC-257): 101%
Activity (MDA-MB-435 [12]): Active
growth at 0.1 µM (HCT-15 [13]): 88%
